Data reported in patent publication US20230405003A1, “APPLICATION OF THYMIDINE DERIVATIVE IN PREPARATION OF DRUGS” (ONQUALITY PHARMACEUTICALS CHINA LTD., priority 2020, published 2023).

System: HaCaT cells
Assay: Relief of 5-FU proliferative toxicity to HaCaT cells (CCK-8 cell survival)
Type: cell-based
Settings: 5-Fu 20 μM, HaCaT cells
Method: The cultured skin cell HaCaTs were digested, counted, and inoculated into a 96-well plate with 5000-10000 cells in each well. After 24 h of culture, the wells were divided into Group of blank solvent control, Group of 5-FU, Group of 5-FU+thymidine derivative, Group of 5-FU+the combination of thymidine derivative and uridine derivative. […] adding a solution of 5-FU and a solution of thymidine derivative (the final concentrations of 5-FU and thymidine derivative are shown in Table 3, the solution of thymidine is an aqueous solution, while the solutions of thymidine derivatives are all DMSO solutions); Group of 5-FU+the combination of thymidine derivative and uridine derivative: adding a solution of 5-FU and a mixed solution of thymidine derivative and uridine derivative (the final concentrations of the solution of 5-FU and the mixed solution of thymidine derivative+uridine derivative are shown in Table 3, the solution of thymidine is an aqueous solution, while the mixed solutions of thymidine derivative+uridine derivative are all DMSO solutions); Group of blank solvent control: adding the same type of solution as those of the corresponding Group of 5-FU or Group of 5-FU+thymidine derivative (or the mixed solution of thymidine derivative+uridine derivative) in equal volume. Group of blank solvent control was used as control to exclude the influence of the solvents in Group of 5-FU and Group of 5-FU+thymidine derivative (or the mixed solution of thymidine derivative+uridine derivative) on the results. After additional 48 hours of culture, a Cell Counting Kit-8 (CCK-8) detection kit (C0037, purchased from Shanghai Beyotime Biotechnology) is used to determine the cell survival rate, thereby calculating the proliferative toxicity of 5-Fu/5-DFUR on cells and the relieving effect of the thymidine derivative (or the mixed solution of thymidine derivative+uridine derivative) on the proliferative toxicity. Using GraphPad Prism 6.0 software, the results were statistically analyzed by t-test and plotted.
(§1) Table 3 lists the combinations of 5-FU and thymidine derivative (or the mixed solution of thymidine derivative+uridine derivative), and the corresponding experimental results (wherein the data in the column of cell survival indicate the corresponding increased percentage of the cell survivals of Group of 5-FU+thymidine derivative or Group of 5-FU+the combination of thymidine derivative and uridine derivative compared with the Group of 5-FU). FIGS. 3-10 list the experimental results of several representative compounds.
The effect of thymidine derivative or a combination of thymidine derivative and uridine derivative on relieving the proliferative toxicity of a chemotherapeutical drug (5-FU) to HaCaT cells was tested according to the method in Examples 2-29. The test thymidine derivative or the combination of thymidine derivative and uridine derivative, as well as the final concentration of the test compounds were shown in Table 7.
as §1, with “7” for “3”, “15-21” for “3-10”, “exemplary” for “representative”

[1] = selected compound final concentration 0.8 μM
[2] = selected compound final concentration 1.6 μM
[3] = selected compound final concentration 3.13 μM
[4] = selected compound final concentration 6.25 μM
[5] = selected compound final concentration 12.5 μM
[6] = selected compound final concentration 25 μM
[7] = selected compound final concentration 50 μM
[8] = selected compound final concentration 100 μM

SMILES: Cc1cn([C@H]2C[C@H](O)[C@@H](COC(=O)Cc3ccccc3Nc3c(Cl)cccc3Cl)O2)c(=O)[nH]c1=O [T39]
- Cell Survival Rate (increased percentage of cell survival compared with the Group of 5-FU) [1]: 36%-43%
- Cell Survival Rate (increased percentage of cell survival compared with the Group of 5-FU) [2]: 58%-66%
- Cell Survival Rate (increased percentage of cell survival compared with the Group of 5-FU) [3]: 64%-71%
- Cell Survival Rate (increased percentage of cell survival compared with the Group of 5-FU) [4]: 67%-74%
- Cell Survival Rate (increased percentage of cell survival compared with the Group of 5-FU) [5]: 65%-72%
- Cell Survival Rate (increased percentage of cell survival compared with the Group of 5-FU) [6]: 69%-77%
- Cell Survival Rate (increased percentage of cell survival compared with the Group of 5-FU) [7]: 69%-77%
- Cell Survival Rate (increased percentage of cell survival compared with the Group of 5-FU) [8]: 75%-83%

SMILES: COc1ccc2cc([C@H](C)C(=O)O[C@H]3C[C@H](n4cc(C)c(=O)[nH]c4=O)O[C@@H]3CO)ccc2c1 [T42]
- Cell Survival Rate (increased percentage of cell survival compared with the Group of 5-FU) [1]: 38%-45%
- Cell Survival Rate (increased percentage of cell survival compared with the Group of 5-FU) [2]: 59%-67%
- Cell Survival Rate (increased percentage of cell survival compared with the Group of 5-FU) [3]: 85%-93%
- Cell Survival Rate (increased percentage of cell survival compared with the Group of 5-FU) [4]: 85%-92%
- Cell Survival Rate (increased percentage of cell survival compared with the Group of 5-FU) [5]: 58%-66%
- Cell Survival Rate (increased percentage of cell survival compared with the Group of 5-FU) [6]: 68%-75%
- Cell Survival Rate (increased percentage of cell survival compared with the Group of 5-FU) [7]: 66%-74%

SMILES: Cc1cn([C@H]2C[C@H](OC(=O)C(C)c3cccc(Oc4ccccc4)c3)[C@@H](CO)O2)c(=O)[nH]c1=O (some centres unmarked) [T43]
- Cell Survival Rate (increased percentage of cell survival compared with the Group of 5-FU) [1]: 23%-31%
- Cell Survival Rate (increased percentage of cell survival compared with the Group of 5-FU) [2]: 49%-56%
- Cell Survival Rate (increased percentage of cell survival compared with the Group of 5-FU) [3]: 72%-79%
- Cell Survival Rate (increased percentage of cell survival compared with the Group of 5-FU) [4]: 91%-98%
- Cell Survival Rate (increased percentage of cell survival compared with the Group of 5-FU) [5]: 125%-133%
- Cell Survival Rate (increased percentage of cell survival compared with the Group of 5-FU) [6]: 99%-106%
- Cell Survival Rate (increased percentage of cell survival compared with the Group of 5-FU) [7]: 100%-107%
- Cell Survival Rate (increased percentage of cell survival compared with the Group of 5-FU) [8]: 34%-41%

SMILES: Cc1cn([C@H]2C[C@H](OC(=O)[C@@H](C)c3ccc(CC(C)C)cc3)[C@@H](CO)O2)c(=O)[nH]c1=O [T44]
- Cell Survival Rate (increased percentage of cell survival compared with the Group of 5-FU) [4]: 13%-20%
- Cell Survival Rate (increased percentage of cell survival compared with the Group of 5-FU) [5]: 27%-35%
- Cell Survival Rate (increased percentage of cell survival compared with the Group of 5-FU) [6]: 53%-60%
- Cell Survival Rate (increased percentage of cell survival compared with the Group of 5-FU) [7]: 69%-76%

SMILES: Cc1cn([C@H]2C[C@H](OC(=O)C(C)c3cccc(Oc4ccccc4)c3)[C@@H](COC(=O)C(C)c3cccc(Oc4ccccc4)c3)O2)c(=O)[nH]c1=O (some centres unmarked) [T46]
- Cell Survival Rate (increased percentage of cell survival compared with the Group of 5-FU) [3]: 27%-34%
- Cell Survival Rate (increased percentage of cell survival compared with the Group of 5-FU) [4]: 34%-41%
- Cell Survival Rate (increased percentage of cell survival compared with the Group of 5-FU) [5]: 48%-55%
- Cell Survival Rate (increased percentage of cell survival compared with the Group of 5-FU) [6]: 61%-68%
- Cell Survival Rate (increased percentage of cell survival compared with the Group of 5-FU) [7]: 65%-72%
- Cell Survival Rate (increased percentage of cell survival compared with the Group of 5-FU) [8]: 75%-83%
- Cell Survival Rate (increased percentage of cell survival compared with the Group of 5-FU) (selected compound final concentration 200 μM): 54%-62%

SMILES: Cc1cn([C@H]2C[C@H](OC(=O)[C@@H](C)c3ccc(CC(C)C)cc3)[C@@H](COC(=O)[C@@H](C)c3ccc(CC(C)C)cc3)O2)c(=O)[nH]c1=O [T47]
- Cell Survival Rate (increased percentage of cell survival compared with the Group of 5-FU) (selected compound final concentration 8 μM): 21%-28%
- Cell Survival Rate (increased percentage of cell survival compared with the Group of 5-FU) (selected compound final concentration 16 μM): 35%-42%
- Cell Survival Rate (increased percentage of cell survival compared with the Group of 5-FU) (selected compound final concentration 32 μM): 49%-56%
- Cell Survival Rate (increased percentage of cell survival compared with the Group of 5-FU) (selected compound final concentration 62.5 μM): 63%-71%
- Cell Survival Rate (increased percentage of cell survival compared with the Group of 5-FU) (selected compound final concentration 125 μM): 64%-72%
- Cell Survival Rate (increased percentage of cell survival compared with the Group of 5-FU) (selected compound final concentration 250 μM): 44%-51%
- Cell Survival Rate (increased percentage of cell survival compared with the Group of 5-FU) (selected compound final concentration 500 μM): 24%-31%
